We go through eight molecules from ChEMBL document CHEMBL1126345, “Synthesis of biological evaluation of 4-deshydroxy-4-methyl etoposide and teniposide analogs” (Bioorg Med Chem Lett, 1992).

Values after ≈ are worked out from the molar mass of the structure shown. Active and inactive are the calls of the source. The rule behind the calls is not given here.

One test concerns HCT-116. As to the kind of experiment: In vitro inhibition of compound against HCT/VP35 cell lines was determined after 72 hr of administration of the dose. The note with it: Homo sapiens, HCT-116, 72 h. It is filed as functional, cell-based.
A further test relates to HCT cell line. As to the kind of experiment: In vitro inhibition of compound against HCT cell lines was determined after 72 hr of administration of the dose. Particulars: Homo sapiens. It is filed as functional, cell-based.
Test [1] deals with P388. In words: In vivo antitumor activity against Murine P388 murine leukemia cell line up to a conc of 100 mg/kg; A - Active. Details: dose 100 mg/kg. It is filed as functional, organism-based. The note with it: Mus musculus.
Test [2] has as its target DNA topoisomerase II (Homo sapiens) (UniProt P11388+Q02880). In words: Double strand DNA breakage reflecting stabilization of DNA topoisomerase II intermediate by the compound expressed in terms of ng of DNA/unit of enzyme/mM of drug.
For test [3], the system named is P388. As to the kind of experiment: In vivo antitumor activity against Murine P388 murine leukemia cell line up to a conc of 100 mg/kg; IA - Totally inactive. The class given is functional, organism-based. Details: dose 100 mg/kg. The note with it: Mus musculus.
Test [4] is described as follows: Resistance ratio was determined as the ratio of resistance to cytotoxicity against human colon tumor (HCT116) to that of (HCT/VP35) cells grown in culture. The class given is functional.

The IC50 is the concentration needed to halve the response being measured. For `COc1cc([C@@H]2c3cc4c(cc3[C@@H](O[C@@H]3O[C@@H]5CO[C@@H](C)O[C@H]5[C@H](O)[C@H]3O)[C@H]3COC(=O)[C@H]23)OCO4)cc(OC)c1C`, the IC50 in the test on HCT-116 and in the test on HCT cell line was 5.7 µg/mL (≈ 9.72 µM) in each case. Also, the result with P388 [1] was Active. The DSB in test [2] was 26.
In the case of `C=CCc1c(OC)cc([C@@H]2c3cc4c(cc3[C@@H](O[C@@H]3O[C@@H]5CO[C@@H](C)O[C@H]5[C@H](O)[C@H]3O)[C@H]3COC(=O)[C@H]23)OCO4)cc1OC`, in the test with P388 [3], the result was inactive. This molecule also came in with a DSB in test [2] of 17.
For the molecule `COc1cc(OC)cc([C@@H]2c3cc4c(cc3[C@@H](O[C@@H]3O[C@@H]5CO[C@@H](C)O[C@H]5[C@H](O)[C@H]3O)[C@H]3COC(=O)[C@H]23)OCO4)c1`, the Resistance ratio in test [4] came out at 0.5. The molecule further gave a DSB in test [2] of 27.
For the molecule `COc1cc([C@@H]2c3cc4c(cc3[C@@H](O[C@@H]3O[C@@H]5CO[C@@H](c6cccs6)O[C@H]5[C@H](O)[C@H]3O)[C@H]3COC(=O)[C@H]23)OCO4)cc(OC)c1O`, the DSB in test [2] came out at 346.
For `COc1cc([C@@H]2c3cc4c(cc3[C@@H](O[C@@H]3O[C@@H]5CO[C@@H](c6cccs6)O[C@H]5[C@H](O)[C@H]3O)[C@H]3COC(=O)[C@H]23)OCO4)cc(OC)c1C`, the outcome in the test on P388 [3] was inactive. This molecule displayed a DSB in test [2] of 49.
`C=CCc1c(OC)cc([C@@H]2c3cc4c(cc3[C@@H](O[C@@H]3O[C@@H]5CO[C@@H](c6cccs6)O[C@H]5[C@H](O)[C@H]3O)[C@H]3COC(=O)[C@H]23)OCO4)cc1OC`: the DSB in test [2] is 42.
For `C=Cc1c(OC)cc([C@@H]2c3cc4c(cc3[C@@H](O[C@@H]3O[C@@H]5CO[C@@H](C)O[C@H]5[C@H](O)[C@H]3O)[C@H]3COC(=O)[C@H]23)OCO4)cc1OC`, in the test with P388 [3], the outcome was inactive. In test [2], the DSB worked out at 17.
In the case of `COc1cc([C@@H]2c3cc4c(cc3[C@@H](O[C@@H]3O[C@@H]5CO[C@@H](C)O[C@H]5[C@H](O)[C@H]3O)[C@H]3COC(=O)[C@H]23)OCO4)cc(OC)c1O`, in test [2], the DSB is 305.
